Publication PMC10703885 (Cell Death & Disease, 2023)
Read-outs that look alike come from different tables or passages of the source.

Assays:
[1] = tested on: acetylated H3/H4 protein in HT29 cells; experiment: Western blot of acetylated H3/H4; assay type: cell-based; conditions: HT29, 0.2, 0.5 and 1 μM, 24 h, compared with SAHA 1 μM
Protocol: (§1) Western blot analysis was performed as in our previous reports. The cells were lysed in RIPA buffer with a complete protease inhibitor cocktail for 10 min on ice followed by centrifugation at 4 °C. The concentration of proteins was determined by the BCA Protein Kit (TIANGEN, Shanghai, China). Equal amounts of total proteins were resuspended in loading buffer, boiled at 100 °C for 5 min, and separated by 10–15% […] gel electrophoresis (SDS-PAGE). Proteins were transferred onto PVDF membranes (Merck Millipore, #IPFL00010, Germany), then the membranes were blocked with 5% non-fat dry milk, and the membranes were incubated with indicated primary antibodies diluted in BSA buffer, overnight at 4 °C. The membranes were washed three times in TBST followed by 1 h incubation with secondary antibodies conjugated with horseradish peroxidase (HRP) at room temperature. Then the membranes were washed before enhanced chemiluminescence. Immunoblots were visualized with the Bio-Rad ChemiDoc XRS system. Quantification was directly performed on the blot using the Image Lab software.

[2] = tested on: acetylated H3/H4 protein in HCT116 cells; experiment: Western blot of acetylated H3/H4; assay type: cell-based; conditions: HCT116, 0.2, 0.5 and 1 μM, 24 h, compared with SAHA 1 μM
Protocol: as §1

HT29 cells [3] = experiment: Colony formation assay; assay type: cell-based; conditions: HT29, 0.2, 0.5 and 1 μM, 14 days
Protocol: (§2) The culture medium was refreshed every other day. Cells were then continuously incubated in a new fresh medium for 10–14 days, the colonies were fixed with methanol for 15 min, stained with 0.5% crystal violet for 15 min, and photographed. Colonies were manually counted using ImageJ software.

HCT116 cells [4] = experiment: Colony formation assay; assay type: cell-based; conditions: HCT116, 0.2, 0.5 and 1 μM, 14 days
Protocol: as §2

HT29 cells [5] = experiment: CCK-8 cell viability assay; assay type: cell-based; conditions: Homo sapiens, HT-29, 72 h
Protocol: (§3) The cells were cultured in 96-well plates at a density of 5 × 10^3 cells/well. Cell viability was assessed with CCK-8 Kit at indicated time post-treatment according to the manufacturer’s instructions. To estimate the viability of the cells, the absorbance of 450 nm (OD450) was measured with a Microplate Reader (BIO-TEK, Inc., Winooski, VT, United States). The IC50 value was calculated by GraphPad Prism 8.0 (San Diego, CA, United States) software.

HCT116 cells [6] = experiment: CCK-8 cell viability assay; assay type: cell-based; conditions: for IC50: Homo sapiens
Protocol: as §3

[7] = tested on: normal renal epithelial 293T cells; experiment: CCK-8 cell viability assay (normal cells); assay type: cell-based; conditions: low concentration of HR488B (0.1-1 μM), 72 h
Protocol: as §3

HCT116 xenograft = HCT116 xenograft model in nude mice; assay type: in vivo, BALB/c nude mice
Protocol: (§4) Male BALB/c nude mice (5–6 weeks) were purchased from the Jiesijie Experimental Animal Co. Ltd (Shanghai, China). All mice were maintained under SPF conditions and at constant temperature (25 °C) and relative humidity (65%) with a 12 h light/dark cycle. HCT116 cells (1 × 10^6) were inoculated into 6–7 weeks-old mice subcutaneously. Tumor volumes were evaluated by calipers and calculated using the standard formula: volume = length × width^2 × 0.5. Once tumor volume exceeded approximately 100 mm^3. […] Tumor volume was measured every 2 days. The protocols for animal care and euthanasia were approved by the Institutional Animal Care and Use Committee of Shanghai Ocean University (Shanghai, China).

[8] = Body weight of xenograft mice; assay type: in vivo, BALB/c nude mice; conditions: 10 mg/kg/d ip over 21 days
Protocol: as §4

Row | Compound | acetylation of H3 and H4 [1] | acetylation of H3 and H4 [2] | number and size of colonies (HT29 cells [3]) | number and size of colonies (HCT116 cells [4]) | IC50 (HT29 cells [5]) [µM] | inhibitory effect on cell viability (in-house HDACi library screen) (HCT116 cells [6]; HCT116 cells, 2.5 μM, 72 h, CCK-8) | IC50 (HCT116 cells [6]; HCT-116, HCT116 cells, 72 h, CCK-8, read-out: IC50) [µM] | cellular toxicity of 293T cells [7] | average tumor weight (HCT116 xenograft; 10 mg/kg ip, compared with control and SAHA-treated group) | tumor volume (HCT116 xenograft; 10 mg/kg/d ip over 21 days, compared with control group and SAHA treatment group) | body weight of mice [8] | IC50 (HCT116 cells [6]; HCT-116, 72 h) [µM]
1 | COc1ccc(N(Cc2nc(-c3ccccc3Cl)cs2)C(=O)CCCCCC(=O)NO)cc1 [HR488B] | significantly increased the acetylation of H3 and H4 in a dose-dependent manner | significantly increased the acetylation of H3 and H4 in a dose-dependent manner | obviously reduced the number and size of the colonies | obviously reduced the number and size of the colonies | 0.59 | optimum inhibitory effect | 0.17 | did not observe any significant cellular toxicity | obviously lower | marked reduction in tumor volume | did not decrease notably | –
2 | O=C(CCCCCCC(=O)Nc1ccccc1)NO [SAHA, reference compound] | – | – | – | – | – | – | – | – | – | – | did not decrease notably | 2.13
